The record followed here is article PMC6021345 (Oncotarget, 2018).

Assay [1] relates to p-STAT3. Description: Immunohistochemistry of p-STAT3 in mouse tumors. Format: in vivo, mice. The following applies: CPT-11 + Hst. How it is done: (§1) CT-26 cell line was used to make the tumor bearing mouse model by s.c. injection of 0.02mL cells in PBS at 5×10^7 cells/mL into the posterior mid-dorsum. Tumor volumes were estimated by the formula π/6×a^2×b, where a is the short and b is the long axis. When tumor volume reached roughly 100mm^3 (~10 days after implantation, defined as day 1), mice were randomly separated into 5 groups, 1). CPT-11 only group, receiving CPT-11 50mg/kg + vehicle 2). CPT-11+Hst 20mg/kg, 3). CPT-11+Hst 100mg/kg, 4). Hst 100mg/kg only, and 5) vehicle control group. CPT-11 was administrated by i.p. injection from day 1 to day 9 while Hst were administrated by oral gavage from day 1 to the end of study. An equivalent dosage of saline or CMC were administrated by i.p injection and oral gavage as vehicle, respectively. Mice were examined daily for signs of diarrhea (fecal staining of skin, lose watery stool) and bloody diarrhea (black sticky stool), as well as tumor growth. After sacrifice, jejunum, ileum and colon samples were dissected. Tissues were formalin-fixed and paraffin embedded for histological examination using 4μm-thick, 100μm step serial sections stained with H&E. A histologic score to evaluate inflammation, epithelial changes and mucosa architecture for each slide was calculated as described previously. […]

Assay [2] relates to STAT3. Description: STAT3 Cignal Reporter Assay. The following applies: HEK293 cells, Hst 24h, IL-6 100 ng/ml 90 min. The class given is cell-based. On the procedure: STAT3 transcription factor activity was measured using the Cignal STAT3 Reporter Assay Kit (Qiagen) according to the manufacturers’ instructions. HEK293 cells were transfected with the Renilla luciferase reporter plasmid. Twenty-four hours later, cells were treated with Hst for 24h, and were incubated with 100 ng/ml IL-6 for 90 min before lysed. Subsequently, Renilla luciferase activity was measured in a microplate reader. Relative transcription factor activity was calculated by dividing relative light units (RLU) of the STAT3-specific reporter and the negative control reporter.
Background: A reporter such as luciferase makes a cellular process visible.

In assay [3] the test system is intestinal inflammation. Briefly: Intestinal inflammation in CPT-11 treated mice. Format: in vivo. How it is done: as §1
The subject of assay [4] is p-STAT3 (Tyr705). Briefly: Western blot of IL-6 induced p-STAT3 (Tyr705) in cancer cell lines. The following applies: various cancer cell lines, IL-6 100ng/ml 90 min. Format: cell-based. How it is done: CT-26 (murine colon cancer), HCT-116 (human colon cancer), CRL-1739 (human stomach gastric cancer) and CRL-1682 (human pancreatic cancer) cell lines were purchased form ATCC. All cells were cultured in T-75 flasks (Falcon). All media were purchased from Life Technologies and supplemented with 10% fetal bovine serum (Sigma) and 1% penicillin-streptomycin (Fisher Scientific). CT-26 and CRL-1682 were cultured in RPMI-1640 medium. CRL-1739 and HCT-116 were cultured in DMEM medium. All cells were cultured in a 37° C, 5% CO2 incubator.
RIPA buffer was purchased form Fisher Scientific. Xpert protease inhibitor cocktail solution 100X and Xpert phosphatase inhibitor cocktail solution 100X were purchased from GenDEPOT. 4–20% Mini-PROTEAN® TGX™ Gel and Trans-Blot® Turbo™ Mini Nitrocellulose Transfer Packs were purchased form Bio-Rad. Rabbit NF-κB and phospho-Stat3 (Tyr705) primary antibody, mouse β-Actin (8H10D10) primary antibody, and anti-mouse IgG HRP conjugated, anti-rabbit IgG HRP conjugated secondary antibody were purchased from Cell Signaling Technology.
Background: In western blotting, separated proteins are transferred to a membrane and probed.

The test system of assay [5] is CT-26 tumor. Description: Tumor growth in CT-26 tumor-bearing mice. Format: in vivo. On the procedure: as §1

Consider `COc1ccc([C@@H]2CC(=O)c3c(O)cc(O)cc3O2)cc1O` [hesperetin], for which, in assay [1], the “p-STAT3 expression in the tumors” value is on record as “remarkably suppressed”. Further, in assay [2], the “concentration inhibiting IL-6 induced STAT3 reporter activity” value lay in the range of 20 to 100 µM. Moreover, the “infiltration of inflammatory cells (neutrophils, macrophages) and cytokine release (TNF-α, IL-6)” value in assay [3] (dose dependent) is recorded as “blocked”. Besides, the “tissue expression of NF-κB” value in assay [3] (mouse small intestine) was “significantly down-regulated”. For the same compound, in assay [4], the “IL-6 induced p-STAT3 (Tyr705) expression” value is reported as “significant down-regulation”. Besides, the “effect on in vivo antitumor activity of CPT-11” value in assay [5] (Hst 20 and 100 mg/kg + CPT-11, starting 5-6 days after Hst treatment) is reported as “enhanced the in vivo antitumor activity of CPT-11”. The “tumor growth, Hst alone” value in assay [5] (Hst alone 100 mg/kg) is “mild inhibition on tumor growth”.
